This is an account of results in ChEMBL document CHEMBL1201862, “PubChem BioAssay data set” (2004).

Calls of active or inactive are those of the source.

The target of assay [1] is Metabotropic glutamate receptor 7 (Homo sapiens, UniProt Q14831). Kind of assay: potentiation of glutamate EC20 at mGlu7 – cell-based, calcium mobilization, Galpha15, dose response (AID 743384). The assay is classed as functional.
Assay [2] has as its target Induced myeloid leukemia cell differentiation protein Mcl-1 (Homo sapiens, UniProt Q07820). Description: blockers of MCL1 binding to BIM peptide – biochemical, fluorescence polarization, BIM-BH3 peptide, 1536-well, dose response (AID 2217). In general terms: Fluorescence polarisation rises when a labelled molecule tumbles more slowly, as on binding a larger partner.
Assay [3] concerns the target Bcl-2-like protein 1 (Homo sapiens, UniProt Q07817). Kind of assay: blockers of BCLXL peptide binding – biochemical, fluorescence polarization, 1536-well, selectivity assay for MCL1 inhibitor project, dose response (AID 2218).
For assay [4], the target named is Protein Tat (Human immunodeficiency virus type 1 group M subtype B (isolate HXB2)(HIV-1), UniProt P04608). In kind it is functional.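 Further: tat binding to TAR RNA read out by fluorescence polarization.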
Protein Tat, sequence (P04608 whole entry): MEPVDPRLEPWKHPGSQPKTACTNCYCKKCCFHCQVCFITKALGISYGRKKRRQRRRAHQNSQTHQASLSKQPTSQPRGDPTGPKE
The nature of assay [5]: viability loss in THP-1 monocytes – THP-1 cells, cytotoxicity control for Vif-APOBEC3G degradation inhibitor project, dose response (AID 1117359). In kind it is functional. The settings on record: THP-1.
The nature of assay [6]: HIV-1 Vif–A3G interaction blockers – biochemical, TR-FRET, GST-Vif 1-94, biotin-A3G peptide, dose response retest, primary screen (AID 1117319).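 Further: TR-FRET signal of purified GST-Vif binding a biotinylated A3G peptide; inhibitors lower the FRET signal by blocking Vif and A3G binding.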 The assay is classed as functional. (In general: In TR-FRET formats the signal depends on donor and acceptor labels being close together.)
The target of assay [7] is Heat shock protein HSP 90-alpha (Homo sapiens, UniProt P07900). Kind of assay: Luminescence-based dose response biochemical high throughput screening assay for inhibitors of the Heat Shock Protein 90 (HSP90). [Related pubchem assays: 1831 (Summary AID.), 1846 (Confirmation screen.), 1789 (Primary screen.)].
A short description of assay [8]: hepatoma cell viability loss – CellTiter-Glo luminescence, dry powder, set 20, cytotoxicity control, dose response (AID 1117291). The settings on record: HepG2. In kind it is functional, cell-based. (In general: In ATP-based viability assays light output follows the ATP content of the culture.)
Assay [9] can be described thus: embryonic kidney cell viability loss – CellTiter-Glo luminescence, dry powder, set 20, cytotoxicity control, dose response (AID 1117293). In kind it is functional, cell-based. The settings on record: HEK293.
For assay [10], the target named is T1, Calpain-2 catalytic subunit (Sus scrofa, UniProt P43367).
T1 sequence (P43367 whole entry): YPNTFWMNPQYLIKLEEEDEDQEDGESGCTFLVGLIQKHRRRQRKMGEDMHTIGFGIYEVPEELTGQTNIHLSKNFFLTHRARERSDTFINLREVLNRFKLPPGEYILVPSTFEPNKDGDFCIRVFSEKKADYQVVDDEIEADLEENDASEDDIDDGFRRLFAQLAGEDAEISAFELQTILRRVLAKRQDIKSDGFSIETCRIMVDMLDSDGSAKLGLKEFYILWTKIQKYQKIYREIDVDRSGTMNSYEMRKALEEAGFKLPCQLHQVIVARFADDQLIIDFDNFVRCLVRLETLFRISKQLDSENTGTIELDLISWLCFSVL
Description: m-calpain protease blockers, concentration series – biochemical, fluorogenic peptide substrate, dose response (AID 1420). The assay is classed as functional.

The target of assay [11] is Transthyretin (Homo sapiens, UniProt P02766). Description: Luminescence-based cell-based high throughput dose response assay to identify activators of Transthyretin (TTR) transcription. In kind it is functional.

For orientation: EC50 means the midpoint of the concentration-response curve. In general, IC50 refers to the concentration at which inhibition is half-maximal. As a reminder, the CC50 is the concentration that lowers cell viability or growth by half. By AC50 is commonly meant the midpoint of the concentration-response curve, whichever way the signal moves.

Bcl-2-like protein 1, sequence (Q07817 whole entry): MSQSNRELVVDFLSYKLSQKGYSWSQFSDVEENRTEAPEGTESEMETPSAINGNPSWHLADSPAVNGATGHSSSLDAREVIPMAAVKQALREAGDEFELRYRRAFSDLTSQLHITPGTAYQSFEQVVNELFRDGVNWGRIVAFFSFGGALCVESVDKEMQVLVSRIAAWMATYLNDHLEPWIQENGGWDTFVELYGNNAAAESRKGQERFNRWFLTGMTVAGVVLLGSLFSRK
Induced myeloid leukemia cell differentiation protein Mcl-1, sequence (Q07820 whole entry): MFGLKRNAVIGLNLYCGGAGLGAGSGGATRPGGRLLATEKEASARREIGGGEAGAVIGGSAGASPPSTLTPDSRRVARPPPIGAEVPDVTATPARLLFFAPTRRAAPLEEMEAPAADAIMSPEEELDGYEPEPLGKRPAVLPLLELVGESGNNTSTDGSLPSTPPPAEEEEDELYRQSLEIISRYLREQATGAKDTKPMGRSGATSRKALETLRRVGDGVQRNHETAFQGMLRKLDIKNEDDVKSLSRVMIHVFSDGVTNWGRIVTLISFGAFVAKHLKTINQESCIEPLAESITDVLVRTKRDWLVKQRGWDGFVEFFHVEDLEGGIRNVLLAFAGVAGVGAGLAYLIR
Metabotropic glutamate receptor 7, sequence (Q14831 whole entry): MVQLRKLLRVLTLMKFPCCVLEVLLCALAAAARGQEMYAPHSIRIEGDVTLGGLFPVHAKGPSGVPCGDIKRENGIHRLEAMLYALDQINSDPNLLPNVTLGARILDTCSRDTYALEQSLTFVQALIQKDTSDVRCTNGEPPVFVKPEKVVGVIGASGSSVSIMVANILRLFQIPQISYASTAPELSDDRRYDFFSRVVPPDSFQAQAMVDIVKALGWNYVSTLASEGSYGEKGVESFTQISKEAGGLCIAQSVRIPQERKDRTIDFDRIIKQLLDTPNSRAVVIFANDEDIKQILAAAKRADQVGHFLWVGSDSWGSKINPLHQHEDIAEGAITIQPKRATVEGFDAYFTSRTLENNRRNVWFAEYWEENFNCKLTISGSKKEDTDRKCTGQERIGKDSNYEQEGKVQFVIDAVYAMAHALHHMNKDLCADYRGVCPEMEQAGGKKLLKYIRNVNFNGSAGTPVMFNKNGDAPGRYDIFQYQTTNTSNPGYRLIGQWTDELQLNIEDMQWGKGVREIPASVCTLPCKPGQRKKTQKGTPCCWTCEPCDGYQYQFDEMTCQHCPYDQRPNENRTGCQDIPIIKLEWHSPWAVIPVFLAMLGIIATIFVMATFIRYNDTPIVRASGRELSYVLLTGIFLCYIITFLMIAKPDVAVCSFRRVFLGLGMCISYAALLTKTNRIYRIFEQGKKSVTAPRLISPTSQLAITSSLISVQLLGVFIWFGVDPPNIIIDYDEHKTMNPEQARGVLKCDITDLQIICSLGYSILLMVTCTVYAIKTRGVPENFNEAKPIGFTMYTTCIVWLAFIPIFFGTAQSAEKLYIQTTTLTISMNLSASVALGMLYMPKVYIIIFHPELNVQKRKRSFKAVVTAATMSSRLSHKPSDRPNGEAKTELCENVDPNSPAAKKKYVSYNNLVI

Turning to `CC(=O)Nc1ccc(SCC(=O)c2cc(C)n(-c3cccc(F)c3)c2C)cc1`, the EC50 in [1] was 1.6 µM (active).

For the molecule `O=C(c1cc(-c2ccco2)nn1-c1cccc(Cl)c1)N1CCCCC1`, the IC50 in [2] is > 109 µM (not active); in [3] it was > 109 µM (not active); in assay [4], > 100 µM (inconclusive); in assay [6] it was > 60.7 µM (active). Further, in assay [5], the CC50 was > 40 µM (active).

Turning to `O=[N+]([O-])c1ccc(S(=O)(=O)N2CCN=C2SCc2ccc(F)cc2)cc1`, the IC50 in [7] is 4.79 µM (active).

Consider `O=S(=O)(Nc1cc(C(F)(F)F)ccc1N1CCCCC1)c1cc(Cl)cc(Cl)c1`, for which the concentration at half-maximal activity (AC50) in [8] is 45.8 µM (active); in [9], 41 µM (active).

With `c1cc2c(cc1C1=Nn3c(nnc3C3CCCCC3)SC1)OCO2`, the half-inhibitory concentration (IC50) in [10] was 10.9 µM (not active). Further, the EC50 in assay [11] was > 167 µM (inactive).
